Experimental data taken from ChEMBL document CHEMBL1135150, “Vitamin D(3): synthesis of seco C-9,11,21-trisnor-17-methyl-1 alpha, 25-dihydroxyvitamin D(3) analogues” (2002).

Tests used:
[1] = system: MCF7; test: In vitro biological evaluation was determined on MCF-7 cell line, results expressed as percentage activity at 50% dose response; format: functional, Homo sapiens
[2] = system: Keratinocyte; test: In vitro biological evaluation was determined on Keratinocytes, results expressed as percentage activity at 50% dose response; format: functional, Homo sapiens
[3] = target: T1, Vitamin D3 receptor (Sus scrofa domesticus) (UniProt Q7M3G7); test: The affinity to the pig intestinal mucosa vitamin D receptor was evaluated in vitro, results expressed as percentage activity at 50% dose response; format: tissue-based
T1 sequence (whole entry): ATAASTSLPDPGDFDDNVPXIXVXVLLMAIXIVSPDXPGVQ

[4] = system: Mus musculus; test: In vivo calcemic effects was tested in vitamin D-replete normal NMRI mice by daily intraperitoneal injections of 1-alpha,25(OH)2D3; format: functional
[5] = system: HL-60; test: In vitro biological evaluation was determined on HL60 cell line, results expressed as percentage activity at 50% dose response; format: functional, Homo sapiens
[6] = system: MG-63; test: In vitro biological evaluation was determined on MG-63 cell line, results expressed as percentage activity at 50% dose response; format: functional, Homo sapiens
[7] = system: HL-60; test: In vitro biological evaluation was determined on HL60, results expressed as percentage activity at 50% dose response; format: functional, Homo sapiens

Activity [3] [%] | Compound | Activity [1] [%] | Activity [2] [%] | Activity [4] [%] | Activity [5] [%] | Activity [6] [%] | Activity [7] [%]
60 | CC(C)(O)C#CCC[C@@]1(C)CC[C@@H](/C=C/C=C2C[C@@H](O)C[C@H](O)C2)C1(C)C | 70 | 85 | 0.25 | 60 |  | 
70 | CC(C)(O)C(F)(F)C/C=C\[C@@]1(C)CC[C@@H](/C=C/C=C2C[C@@H](O)C[C@H](O)C2)C1(C)C | 10 | 60 | 0.5 | 20 |  | 
40 | CC(C)(O)CCCC[C@@]1(C)CC[C@@H](/C=C/C=C2C[C@@H](O)C[C@H](O)C2)C1(C)C | 30 | 10 | 0.25 | 9 | 40 | 
75 | CCC(O)(CC)CCCC[C@@]1(C)CC[C@@H](/C=C/C=C2C[C@@H](O)C[C@H](O)C2)C1(C)C | 100 | 40 | 0.25 | 85 | 80 | 
80 | C=C1C(=CC=C[C@@H]2CC[C@](C)(/C=C\CCC(O)(C(F)(F)F)C(F)(F)F)C2(C)C)C[C@@H](O)C[C@@H]1O | 375 | 300 | 13 | 50 | 50 | 
30 | C=C1C(=CC=C[C@@H]2CC[C@](C)(CCCCC(C)(C)O)C2(C)C)C[C@@H](O)C[C@@H]1O | 80 | 40 | <1 | 40 | 60 | 
100 | CC1(C)[C@H](/C=C/C=C2C[C@@H](O)C[C@H](O)C2)CC[C@]1(C)CCC#CC(O)(C(F)(F)F)C(F)(F)F | 2000 | 4500 | 1 |  |  | 300
80 | C=C1C(=CC=C[C@@H]2CC[C@](C)(CCCCC(O)(CC)CC)C2(C)C)C[C@@H](O)C[C@@H]1O | 250 | 90 | 5 | 100 | 200 | 
100 | C=C1/C(=C\C=C2/CCC[C@]3(C)[C@@H]([C@H](C)CCCC(C)(C)O)CC[C@@H]23)C[C@@H](O)C[C@@H]1O [CALCITRIOL] | 100 | 100 | 100 | 100 | 100 | 
9 | C=C1/C(=C\C=C\[C@@H]2CC[C@](C)(CCC#CC(C)(C)O)C2(C)C)C[C@@H](O)C[C@@H]1O | 150 | 400 | 0.1 | 100 | 50 | 
80 | C=C1C(=CC=C[C@@H]2CC[C@](C)(CCCCC(O)(C(F)(F)F)C(F)(F)F)C2(C)C)C[C@@H](O)C[C@@H]1O | 1250 | 750 | 10 | 150 | 200 | 
75 | C=C1C(=CC=C[C@@H]2CC[C@](C)(CCCC(F)(F)C(C)(C)O)C2(C)C)C[C@@H](O)C[C@@H]1O | 90 | 1350 | 3 | 80 | 50 | 
40 | C=C1C(=CC=C[C@@H]2CC[C@](C)(/C=C\CC(F)(F)C(C)(C)O)C2(C)C)C[C@@H](O)C[C@@H]1O | 70 | 200 | <0.1 | 20 | 12 | 
